Laboratory results: patent US20250154156A1, “QUINAZOLINE DERIVATIVE AS KRAS G12C MUTATION INHIBITOR” (Shenzhen Forward Pharmaceuticals Co., Limited, priority 2022, published 2025)
pIC50: −log10 of the molar value.

Legend:
[1] = biological target: Ba/F3 (KRAS-G12C-H95Q) cells (Homo sapiens, UniProt P01116, G12C/H95Q, cells depend on it); test: Proliferation experiment of Ba/F3 (KRAS-G12C-H95Q) cells; assay type: cell-based; conditions: 72 hours, Cell Titer-Glo, read-out: Test Example 4 IC50
Procedure: Engineered cell strain Ba/F3 (KRAS-G12C-H95Q) was a cell strain constructed by the inventors according to the methods described in Warmuth M. et al, Curr Opin Oncol. […] The cells were grown at 37° C. in a humidified incubator with […].
(§1) According to the solution described in Cell Titer-Glo Luminescent cell Viability Assay (Promega catalog number #G7570) of Promega Corporation, the number of living cells in the culture was detected. 90 μL of cells (3,000 cells/well) were cultured in a growth medium in a Corning black transparent bottom 96-well plate and were cultured overnight in a 5% CO2 humidified incubator at 37° C. The compound diluted serially in 100% DMSO was added to the cells by a pipette, and the cells were cultured for another 72 hours. 100 μL of the well-mixed Cell Titer-Glo reagent was added to the cells in the 96-well culture plate to lyse the cells and gently mixed. Subsequently, […] was detected on an Envision microplate detector, and the data of each compound was obtained. Finally, the data was input into a suitable software package (such as Prism) for curve fitting analysis.

[2] = biological target: Ba/F3 (KRAS-G12C-R68S) cells (Homo sapiens, UniProt P01116, G12C/R68S, cells depend on it); test: Proliferation experiment of Ba/F3 (KRAS-G12C-R68S) cells; assay type: cell-based; conditions: 72 hours, Cell Titer-Glo, read-out: Test Example 5 IC50
Ba/F3 (KRAS-G12C-R68S) cells, sequence (P01116 whole entry G12C/R68S): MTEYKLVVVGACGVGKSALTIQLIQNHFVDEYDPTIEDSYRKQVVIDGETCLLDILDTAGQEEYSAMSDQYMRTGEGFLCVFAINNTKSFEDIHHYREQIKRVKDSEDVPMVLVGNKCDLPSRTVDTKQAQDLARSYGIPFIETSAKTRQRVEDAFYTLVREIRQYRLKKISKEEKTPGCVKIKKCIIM
Procedure: Engineered cell strain Ba/F3 (KRAS-G12C-R68S) was a cell strain constructed by the inventors according to the methods described in Warmuth M. et al, Curr Opin Oncol. […] The cells were grown at 37° C. in a humidified incubator with 5% CO2.
as §1

[3] = biological target: Ba/F3 (KRAS-G12C-Y96C) cells (Homo sapiens, UniProt P01116, G12C/Y96C, cells depend on it); test: Proliferation experiment of Ba/F3 (KRAS-G12C-Y96C) cells; assay type: cell-based; conditions: 72 hours, Cell Titer-Glo, read-out: Test Example 3 IC50
Ba/F3 (KRAS-G12C-Y96C) cells, sequence (P01116 whole entry G12C/Y96C): as the sequence (P01116 whole entry G12C/R68S) above, with S68R, Y96C counted along it
Procedure: Engineered cell strain Ba/F3 (KRAS-G12C-Y96C) was a cell strain constructed by the inventors according to the methods described in Warmuth M. et al, Curr Opin Oncol. […] The cells were grown at 37° C. in a humidified incubator with […].
as §1, with “[…]” for “5%”

[4] = biological target: Ba/F3 (KRAS-G12C-Q99L) cells (Homo sapiens, UniProt P01116, G12C/Q99L, cells depend on it); test: Proliferation experiment of Ba/F3 (KRAS-G12C-Q99L) cells; assay type: cell-based; conditions: 72 hours, Cell Titer-Glo, read-out: Test Example 6 IC50
Ba/F3 (KRAS-G12C-Q99L) cells, sequence (P01116 whole entry G12C/Q99L): as the sequence (P01116 whole entry G12C/R68S) above, with S68R, Q99L counted along it
Procedure: Engineered cell strain Ba/F3 (KRAS-G12C-Q99L) was a cell strain constructed by the inventors according to the methods described in Warmuth M. et al, Curr Opin Oncol. […] The cells were grown at 37° C. in a humidified incubator with 5% CO2.
as §1

[5] = test system: NCI-H23 cells (KRAS G12C mutant cell line); test: Proliferation experiment of NCI-H23 cells (Cell Titer-Glo); assay type: cell-based; conditions: Homo sapiens, 72 hours, read-out: Test Example 2 IC50
Procedure: Human lung cancer cell line NCI-H23 (ATCC, CRL-5800) was a KRAS G12C mutant cell line.
as §1, with “(8,000” for “(3,000”

[6] = test system: NCI-H358 cells (KRAS G12C mutant cell line); test: Proliferation experiment of NCI-H358 cells (Cell Titer-Glo); assay type: cell-based; conditions: Homo sapiens, 72 hours, read-out: Test Example 1 IC50
Procedure: as §1, with “(8,000” for “(3,000”

[7] = In vitro human liver microsome stability experiment; assay type: in vitro ADME; conditions: human liver microsomes; for half-life / microsomal CLint: 1 mg/mL microsome protein, NADPH, 37° C.; for microsomal CLint: read-out: CLint(mic); for CLint scaled: scaled to liver
Procedure: Eight 96-well incubation plates were prepared, named [NT], Blank60, and NCF60, respectively. […] No compound to be tested or control compound was added to the Blank60 plate and samples were taken after 60 minutes of incubation. The NCF60 plate, in which a potassium phosphate buffer was used instead of an NADPH regeneration system solution (Sigma, N0505), was incubated for 60 minutes. […] Only the working solution of microsomes was added to the Blank60 plate, and the incubation plates Blank60, T5, T15, T30, T45, and T60 except TO and NCF60 were then placed in a water bath at 37° C. for pre-incubation for about 10 minutes. To the TO plate sample, 600 μL of a stop solution (acetonitrile:methanol (95:5, v/v) solution containing 100 ng/mL tolbutamide (Sigma, T0891)) was added first, and then an NADPH regeneration system working solution was added. 98 μL of a potassium phosphate buffer was added to each well of the NCF60 plate and incubated for 60 minutes. After the pre-incubation in the incubation plates Blank60, T5, T15, T30, T45, and T60 was complete, 98 μL of the NADPH regeneration system working solution was added to each sample well to initiate the reaction. After an appropriate incubation time (such as 5, 15, 30, 45, and 60 minutes), 600 μL of the stop solution was added to each sample well and control sample well in the Blank60, […] the reaction. All the sample plates were shaken evenly and centrifuged at 3220×g for 20 minutes. 200 μL of each test sample supernatant was taken and diluted into 200 μL of an aqueous solution containing 0.3% formic acid for LC-MS/MS analysis, and 100 μL of the control sample supernatant was taken and diluted into 300 μL of pure water for LC-MS/MS analysis. Calculations were carried out according to the following formulas: […]

Ba/F3 (KRAS-G12C-H95Q) cells, sequence (P01116 whole entry G12C/H95Q): as the sequence (P01116 whole entry G12C/R68S) above, with S68R, H95Q counted along it

| Structure (SMILES) | GI50 [1] [µM] | GI50 [2] [µM] | GI50 [3] [µM] | GI50 [4] [µM] | pIC50 [5] | pIC50 [6] | half-life [7] [min] | microsomal CLint [7] [µL/min/mg] | CLint scaled [7] [mL/min/kg] |
| --- | --- | --- | --- | --- | --- | --- | --- | --- | --- |
| C#Cc1ccc2cccc(-c3c(F)cc4c(N5CCN(C(=O)C(=C)F)[C@@H](CC#N)C5)nc(OCC56CCCN5CCC6)nc4c3F)c2c1 [Compound 25, 2-((2S)-4-(7-(7-ethynylnaphth-1-yl)-6,8-difluoro-2-((tetrahydro-1H-pyrrolizin-7a(5H)-yl)methoxy)quinazolin-4-yl)-1-(2-fluoroacryloyl)piperazin-2-yl)acetonitrile] | > 5 | > 5 | > 5 | > 5 |  |  |  |  |  |
| C#Cc1c(F)ccc2cc(O)cc(-c3ccc4c(N5CCN(C(=O)C(=C)F)[C@@H](CC#N)C5)nc(OCC56CCCN5CCC6)nc4c3F)c12 [Compound 12, (S)-2-(4-(7-(8-ethynyl-7-fluoro-3-hydroxynaphth-1-yl)-8-fluoro-2-((tetrahydro-1H-pyrrolizin-7a(5H)-yl)methoxy)quinazolin-4-yl)-1-(2-fluoroacryloyl)piperazin-2-yl)acetonitrile] | 0.0416 | 0.0514 | 0.0262 | 0.0244 | 8.99 | 9.18 | 30.9 | 56.2 | 49.6 |
| C=C(F)C(=O)N1CCN(c2nc(OCC34CCCN3CCC4)nc3c(F)c(-c4cc(O)cc5c(Cl)cccc45)ccc23)C[C@@H]1CC#N [Compound 28, (S)-2-(4-(7-(5-chloro-3-hydroxynaphth-1-yl)-8-fluoro-2-((tetrahydro-1H-pyrrolizin-7a(5H)-yl)methoxy)quinazolin-4-yl)-1-(2-fluoroacryloyl)piperazin-2-yl)acetonitrile] | > 5 | > 5 | > 5 | > 5 |  |  |  |  |  |
| C#Cc1cc(-c2c(F)cc3c(N4CCN(C(=O)C(=C)F)[C@@H](CC#N)C4)nc(OCC45CCCN4CCC5)nc3c2F)c2ccccc2c1 [Compound 26, 2-((2S)-4-(7-(3-ethynylnaphth-1-yl)-6,8-difluoro-2-((tetrahydro-1H-pyrrolizin-7a(5H)-yl)methoxy)quinazolin-4-yl)-1-(2-fluoroacryloyl)piperazin-2-yl)acetonitrile] | > 5 | > 5 | > 5 | > 5 |  |  |  |  |  |
| C#Cc1c(F)ccc2cccc(-c3c(F)cc4c(N5CCN(C(=O)C(=C)F)[C@@H](CC#N)C5)nc(OCC56CCCN5CCC6)nc4c3F)c12 [Compound 19B, 2-((2S)-4-(7-(8-ethynyl-7-fluoronaphth-1-yl)-6,8-difluoro-2-((tetrahydro-1H-pyrrolizin-7a(5H)-yl)methoxy)quinazolin-4-yl)-1-(2-fluoroacryloyl)piperazin-2-yl)acetonitrile] |  |  |  |  | 8.77 | 9.33 | 24.5 | 56.5 | 50.9 |
| C#Cc1cccc2c(-c3c(F)cc4c(N5CCN(C(=O)C(=C)F)[C@@H](CC#N)C5)nc(OCC56CCCN5CCC6)nc4c3F)cccc12 [Compound 27, 2-((2S)-4-(7-(5-ethynylnaphth-1-yl)-6,8-difluoro-2-((tetrahydro-1H-pyrrolizin-7a(5H)-yl)methoxy)quinazolin-4-yl)-1-(2-fluoroacryloyl)piperazin-2-yl)acetonitrile] | > 5 | > 5 | > 5 | > 5 |  |  |  |  |  |
| C=C(F)C(=O)N1CCN(c2nc(OC[C@@]34CCCN3C[C@H](F)C4)nc3c(F)c(-c4cccc5cccc(Cl)c45)ccc23)C[C@@H]1CC#N [Compound 5] | 0.709 | 0.929 | 0.473 | 0.589 | 8.90 | 8.80 |  |  |  |
| C=C(F)C(=O)N1CCN(c2nc(OCC34CCCN3CCC4)nc3c(F)c(-c4cccc5cccc(Cl)c45)c(F)cc23)C[C@@H]1CC#N [Compound 6A, 2-((2S)-4-(7-(8-chloronaphth-1-yl)-6,8-difluoro-2-((tetrahydro-1H-pyrrolizin-7a(5H)-yl)methoxy)quinazolin-4-yl)-1-(2-fluoroacryloyl)piperazin-2-yl)acetonitrile] | 0.689 | 0.863 | 0.525 | 0.779 | 8.84 | 8.74 |  |  |  |
| C=C(F)C(=O)N1CCN(c2nc(OCC34CCCN3CCC4)nc3c(F)c(-c4cccc5cccc(Cl)c45)ccc23)C[C@@H]1CC#N [Compound 17, (S)-2-(4-(7-(8-chloronaphth-1-yl)-8-fluoro-2-((tetrahydro-1H-pyrrolizin-7a(5H)-yl)methoxy)quinazolin-4-yl)-1-(2-fluoroacryloyl)piperazin-2-yl)acetonitrile] |  |  |  |  | 9.28 | 9.22 |  |  |  |
| C=C(F)C(=O)N1CCN(c2nc(OCC34CCCN3CCC4)nc3c(F)c(-c4cc(O)cc5ccc(Cl)cc45)ccc23)C[C@@H]1CC#N [Compound 29, (S)-2-(4-(7-(7-chloro-3-hydroxynaphth-1-yl)-8-fluoro-2-((tetrahydro-1H-pyrrolizin-7a(5H)-yl)methoxy)quinazolin-4-yl)-1-(2-fluoroacryloyl)piperazin-2-yl)acetonitrile] | > 5 | > 5 | > 5 | > 5 |  |  |  |  |  |
